Measured values as given in DBAASP.
Converted amounts (≈) assume the structure as drawn.

How the values were obtained:
Experiment in all cases: ≥ marks a high value that may be exact or a test limit, other limits are often not marked, values filed in µg/mL are converted to µM
[1] = test system: Pseudomonas aeruginosa Ps4
[2] = test system: Staphylococcus aureus NCTC 8325
[3] = test system: Escherichia coli ATCC 25922
[4] = test system: Candida albicans ATCC 90028
[5] = test system: Staphylococcus aureus ATCC 2592
[6] = test system: Candida albicans ATCC 2002
Bacillus subtilis = test system: Bacillus subtilis
[7] = test system: Pseudomonas aeruginosa CMCCB 10104
Acinetobacter baumannii = test system: Acinetobacter baumannii
[8] = test system: Pseudomonas aeruginosa PAO1
[9] = test system: Salmonella enterica serovar Typhimurium
[10] = test system: Staphylococcus aureus ATCC 25923
Escherichia coli = test system: Escherichia coli
Pseudomonas aeruginosa = test system: Pseudomonas aeruginosa
Staphylococcus aureus = test system: Staphylococcus aureus
Escherichia coli UB1005 = test system: Escherichia coli UB1005

## CC[C@H](C)[C@H](NC(=O)[C@H](CC(N)=O)NC(=O)[C@H](CCCN=C(N)N)NC(=O)[C@H](CCC(N)=O)NC(=O)[C@H](Cc1c[nH]c2ccccc12)NC(=O)[C@@H](N)Cc1ccccc1)C(=O)N[C@@H](CCCN=C(N)N)C(=O)N[C@@H](Cc1ccccc1)C(=O)N[C@H](C(=O)N[C@@H](CCCN=C(N)N)C(N)=O)C(C)C [FWQRNIRFVR]
[1]
  MIC: ≥ 176 µM

## CC[C@H](C)[C@H](NC(=O)[C@H](CO)NC(=O)CNC(=O)[C@@H](NC(=O)[C@@H](N)C(C)C)[C@@H](C)CC)C(=O)N[C@@H](CC(C)C)C(=O)NCC(=O)N[C@@H](C)C(=O)N[C@@H](CC(C)C)C(=O)N[C@@H](C)C(=O)N[C@@H](CO)C(=O)NCC(=O)N[C@@H](CC(C)C)C(=O)N1CCC[C@H]1C(=O)N[C@H](C(=O)N[C@@H](CC(C)C)C(=O)N[C@H](C(=O)N[C@@H](CO)C(=O)N[C@@H](Cc1c[nH]c2ccccc12)C(=O)N[C@H](C(=O)N[C@@H](CCCCN)C(=O)N[C@@H](CC(N)=O)C(=O)N[C@@H](CCCN=C(N)N)C(N)=O)[C@@H](C)CC)[C@@H](C)CC)[C@@H](C)O [VIGSILGALASGLPTLISWIKNR]
[2]
  MIC: 6 µM (≈ 14.3 µg/mL)
[3]
  MIC: 25 µM (≈ 59.5 µg/mL)
[4]
  MIC: 25 µM (≈ 59.5 µg/mL)

## CC[C@H](C)[C@H](NC(=O)[C@H](CCCN=C(N)N)NC(=O)[C@@H](NC(=O)[C@H](CC(N)=O)NC(=O)[C@H](CCCN=C(N)N)NC(=O)[C@H](Cc1c[nH]c2ccccc12)NC(=O)[C@@H](N)Cc1ccccc1)[C@@H](C)CC)C(=O)N[C@@H](CCCN=C(N)N)C(=O)N[C@@H](CCCN=C(N)N)C(N)=O [FWRNIRIRR]
[1]
  MIC: ≥ 94.9 µM

## CC[C@H](C)[C@H](N)C(=O)N[C@@H](CC(N)=O)C(=O)N[C@@H](Cc1c[nH]c2ccccc12)C(=O)N[C@@H](CCCCN)C(=O)NCC(=O)N[C@H](C(=O)N[C@@H](C)C(=O)N[C@@H](C)C(=O)N[C@@H](CCSC)C(=O)N[C@@H](CCCCN)C(=O)N[C@@H](CCCCN)C(=O)N[C@@H](CC(C)C)C(=O)N[C@@H](CC(C)C)C(N)=O)[C@@H](C)CC [INWKGIAAMKKLL]
[5]
  MIC: 2.49 µM (≈ 3.7 µg/mL)
[3]
  MIC: 10.1 µM (≈ 15 µg/mL)
[6]
  MIC: 5.05 µM (≈ 7.5 µg/mL)

## CC[C@H](C)[C@H](NC(=O)[C@H](CC(N)=O)NC(=O)[C@H](CCCN=C(N)N)NC(=O)[C@H](CCC(N)=O)NC(=O)[C@H](Cc1c[nH]c2ccccc12)NC(=O)[C@@H](N)Cc1ccccc1)C(=O)N[C@@H](CO)C(=O)N[C@@H](CCCCN)C(=O)N[C@H](C(=O)N[C@@H](CCCN=C(N)N)C(N)=O)C(C)C [FWQRNISKVR]
[1]
  MIC: ≥ 187 µM

## CC[C@H](C)[C@H](N)C(=O)N[C@@H](CC(C)C)C(=O)N1CCC[C@H]1C(=O)N[C@@H](CC(C)C)C(=O)N[C@@H](CC(C)C)C(=O)N[C@@H](CC(C)C)C(=O)NCC(=O)N[C@@H](CCCCN)C(=O)N[C@H](C(=O)N[C@H](C(=O)N[C@H]1CSSC[C@@H](C(=O)O)NC(=O)[C@H](CCCCN)NC(=O)[C@H](CCCCN)NC(=O)[C@H]([C@@H](C)O)NC(=O)[C@H]([C@@H](C)CC)NC(=O)[C@H](C)NC1=O)C(C)C)C(C)C [ILPLLLGKVVCAITKKC]
[2]
  MIC: 7 µM (≈ 12.7 µg/mL)
[3]
  MIC: 30 µM (≈ 54.3 µg/mL)

## CC[C@H](C)[C@H](NC(=O)[C@H](CCCN=C(N)N)NC(=O)[C@H](Cc1c[nH]c2ccccc12)NC(=O)[C@@H](NC(=O)[C@H](CCCN=C(N)N)NC(=O)[C@H](Cc1c[nH]c2ccccc12)NC(=O)[C@@H](N)Cc1ccccc1)[C@@H](C)CC)C(=O)N[C@@H](Cc1c[nH]c2ccccc12)C(=O)N[C@@H](CCCN=C(N)N)C(N)=O [FWRIWRIWR]
[1]
  MIC: ≥ 44.1 µM

## CC(C)[C@H](N)C(=O)N[C@@H](CCCCN)C(=O)N[C@@H](CCCN=C(N)N)C(=O)N[C@@H](Cc1ccccc1)C(=O)N[C@@H](CCCCN)C(=O)N[C@@H](CCCCN)C(=O)N[C@@H](Cc1ccccc1)C(=O)N[C@@H](Cc1ccccc1)C(=O)N[C@@H](CCCN=C(N)N)C(=O)N[C@@H](CCCCN)C(=O)N[C@@H](Cc1ccccc1)C(=O)N[C@@H](CCCCN)C(=O)N[C@@H](CCCCN)C(=O)N[C@@H](CO)C(=O)N[C@H](C(N)=O)C(C)C [VKRFKKFFRKFKKSV]
[5]
  MIC: ≥ 50.7 µM
Bacillus subtilis
  MIC: ≥ 50.7 µM
[3]
  MIC: 19 µM (≈ 37.5 µg/mL)
[6]
  MIC: 4.75 µM (≈ 9.38 µg/mL)

## CC[C@H](C)[C@H](N)C(=O)N[C@@H](CC(C)C)C(=O)N1CCC[C@H]1C(=O)N[C@@H](CC(C)C)C(=O)N[C@H](C(=O)NCC(=O)N[C@@H](CC(N)=O)C(=O)N[C@@H](CC(C)C)C(=O)N[C@@H](CC(C)C)C(=O)N[C@@H](CC(N)=O)C(=O)N[C@@H](CC(=O)O)C(=O)N[C@@H](CC(C)C)C(=O)N[C@@H](CC(C)C)C(N)=O)C(C)C [ILPLVGNLLNDLL]
[2]
  MIC: ≥ 100 µM
[3]
  MIC: > 100 µM

## CC[C@H](C)[C@H](NC(=O)[C@H](CCCCN)NC(=O)CNC(=O)[C@H](CC(C)C)NC(=O)[C@H](CC(C)C)NC(=O)[C@H](CO)NC(=O)[C@H](C)NC(=O)[C@H](CC(C)C)NC(=O)[C@H](CC(C)C)NC(=O)CNC(=O)CNC(=O)[C@H](CC(C)C)NC(=O)[C@@H](N)Cc1ccccc1)C(=O)O [FLGGLLASLLGKI]
[5]
  MIC: 2.38 µM (≈ 3.1 µg/mL)
Bacillus subtilis
  MIC: 2.38 µM (≈ 3.1 µg/mL)
[3]
  MIC: 19.2 µM (≈ 25 µg/mL)
[6]
  MIC: 1.23 µM (≈ 1.6 µg/mL)

## CC[C@H](C)[C@H](NC(=O)[C@H](CC(N)=O)NC(=O)[C@H](CCCN=C(N)N)NC(=O)[C@H](CCC(N)=O)NC(=O)[C@H](Cc1c[nH]c2ccccc12)NC(=O)[C@@H](N)Cc1ccccc1)C(=O)N[C@@H](Cc1ccccc1)C(=O)N[C@@H](CCCCN)C(=O)N[C@H](C(=O)N[C@@H](CCCN=C(N)N)C(N)=O)C(C)C [FWQRNIFKVR]
[1]
  MIC: ≥ 179 µM

## CC[C@H](C)[C@H](NC(=O)[C@H](CC(C)C)NC(=O)[C@H](CC(N)=O)NC(=O)[C@@H](NC(=O)[C@H](CC(C)C)NC(=O)[C@@H](NC(=O)[C@@H]1CCCN1C(=O)[C@H](CC(C)C)NC(=O)[C@@H](N)Cc1ccccc1)[C@@H](C)CC)[C@@H](C)CC)C(=O)N[C@@H](Cc1cnc[nH]1)C(=O)N[C@@H](CCCCN)C(=O)NCC(=O)N[C@@H](CC(C)C)C(=O)N[C@@H](CC(C)C)C(N)=O [FLPILINLIHKGLL]
[2]
  MIC: ≥ 125 µM
[3]
  MIC: > 150 µM
[4]
  MIC: ≥ 150 µM

## CC[C@H](C)[C@H](N)C(=O)N[C@@H](CC(C)C)C(=O)NCC(=O)N1CCC[C@H]1C(=O)N[C@H](C(=O)N[C@@H](CC(C)C)C(=O)N[C@@H](CO)C(=O)N[C@@H](CCSC)C(=O)N[C@H](C(=O)NCC(=O)N[C@@H](CO)C(=O)N[C@@H](C)C(=O)N[C@@H](CC(C)C)C(=O)NCC(=O)NCC(=O)N[C@@H](CC(C)C)C(=O)N[C@H](C(=O)N[C@@H](CCCCN)C(=O)N[C@@H](CCCCN)C(=O)N[C@H](C(N)=O)[C@@H](C)CC)[C@@H](C)CC)C(C)C)C(C)C [ILGPVLSMVGSALGGLIKKI]
[7]
  MIC: 2.03 µM (≈ 4 µg/mL)
[5]
  MIC: 1.02 µM (≈ 2 µg/mL)
[3]
  MIC: 10.2 µM (≈ 20 µg/mL)
[6]
  MIC: 1.02 µM (≈ 2 µg/mL)

## NC(=O)[C@H](CCCN=C(N)N)NC(=O)[C@H](CCCN=C(N)N)NC(=O)[C@H](Cc1c[nH]c2ccccc12)NC(=O)[C@H](CCCN=C(N)N)NC(=O)[C@H](Cc1c[nH]c2ccccc12)NC(=O)[C@@H](N)Cc1ccccc1 [FWRWRR]
[1]
  MIC: ≥ 124 µM

## CC[C@H](C)[C@H](NC(=O)[C@H](CCCN=C(N)N)NC(=O)[C@@H](NC(=O)[C@H](CCCN=C(N)N)NC(=O)[C@H](Cc1c[nH]c2ccccc12)NC(=O)[C@H](CCC(N)=O)NC(=O)[C@@H](N)C(C)C)[C@@H](C)CC)C(=O)N[C@@H](C)C(=O)N[C@H](C(=O)N[C@H](C(=O)N[C@@H](CCCN=C(N)N)C(=O)N[C@@H](C)C(=O)O)[C@@H](C)CC)C(C)C [VQWRIRIAVIRA]
Acinetobacter baumannii
  MIC: 21.6 µM (≈ 32 µg/mL)
[8]
  MIC: 21.6 µM (≈ 32 µg/mL)
[9]
  MIC: 2.7 µM (≈ 4 µg/mL)
[10]
  MIC: 5.4 µM (≈ 8 µg/mL)
Escherichia coli
  MIC: 43.2 µM (≈ 64 µg/mL)
Pseudomonas aeruginosa
  MIC: 30.6 µM (≈ 45.3 µg/mL)
[3]
  MIC: 5.4 µM (≈ 8 µg/mL)
Staphylococcus aureus
  MIC: 15.3 µM (≈ 22.6 µg/mL)

## CC[C@H](C)[C@H](NC(=O)[C@H](C)NC(=O)[C@H](CO)NC(=O)[C@H](CC(C)C)NC(=O)[C@@H](N)Cc1ccccc1)C(=O)N[C@H](C(=O)N[C@@H](CO)C(=O)N[C@@H](CC(C)C)C(=O)N[C@@H](CC(C)C)C(=O)NCC(=O)N[C@@H](CCCCN)C(=O)N[C@@H](CC(C)C)C(=O)N[C@@H](CC(C)C)C(N)=O)[C@@H](C)O [FLSAITSLLGKLL]
[2]
  MIC: 6 µM (≈ 8.25 µg/mL)

## CC[C@H](C)[C@H](NC(=O)[C@H](Cc1ccccc1)NC(=O)[C@H](CCCCN)NC(=O)[C@H](CCCCN)NC(=O)[C@H](Cc1c[nH]c2ccccc12)NC(=O)[C@@H](N)CCCCN)C(=O)N[C@@H](CCCCN)C(=O)N[C@@H](CO)C(=O)N[C@@H](CC(C)C)C(=O)N[C@H](C(=O)N[C@@H](CCCCN)C(=O)N[C@@H](CO)C(=O)N[C@@H](C)C(=O)N[C@@H](C)C(=O)N[C@@H](CCCCN)C(=O)N[C@H](C(=O)N[C@H](C(=O)N[C@H](C(=O)N[C@@H](CCCCN)C(=O)N[C@H](C(=O)N[C@@H](C)C(=O)N[C@@H](CCCCN)C(=O)N[C@@H](CCCCN)C(=O)N1CCC[C@H]1C(=O)N[C@@H](CC(C)C)C(=O)N[C@H](C(=O)N[C@H](C(N)=O)C(C)C)[C@@H](C)CC)[C@@H](C)O)C(C)C)C(C)C)[C@@H](C)O)[C@@H](C)O [KWKKFIKSLTKSAAKTVVKTAKKPLIV]
[8]
  MIC: 1.31 µM (≈ 4 µg/mL)
[9]
  MIC: 0.986 µM (≈ 3 µg/mL)
Pseudomonas aeruginosa
  MIC: 0.93 µM (≈ 2.83 µg/mL)
Escherichia coli UB1005
  MIC: 0.329 µM (≈ 1 µg/mL)
Staphylococcus aureus
  MIC: > 21 µM
